Results as given in PMC9492542, “Brain-restricted mTOR inhibition with binary pharmacology” (Nature, 2022).
pIC50, pKd: −log10 of the molar value. Several values for one entry are separate records, joined by “and”; a condition that tells them apart may be missing. Identical values can stand only once. Like-named read-outs stand apart in the source and are kept apart here. One block for each compound: values may come before it.

Assays:
[1] = molecular target: LRRK2 (Mus musculus, UniProt Q5S006); assay: Phospho-LRRK2 (S935) quantification by TR-FRET in RAW264.7 cells; conditions: for P-LRRK2(S935) in RAW264.7 cells: replicate raw data
Chain of LRRK2 (Mus musculus, UniProt Q5S006) (Q5S006 whole entry): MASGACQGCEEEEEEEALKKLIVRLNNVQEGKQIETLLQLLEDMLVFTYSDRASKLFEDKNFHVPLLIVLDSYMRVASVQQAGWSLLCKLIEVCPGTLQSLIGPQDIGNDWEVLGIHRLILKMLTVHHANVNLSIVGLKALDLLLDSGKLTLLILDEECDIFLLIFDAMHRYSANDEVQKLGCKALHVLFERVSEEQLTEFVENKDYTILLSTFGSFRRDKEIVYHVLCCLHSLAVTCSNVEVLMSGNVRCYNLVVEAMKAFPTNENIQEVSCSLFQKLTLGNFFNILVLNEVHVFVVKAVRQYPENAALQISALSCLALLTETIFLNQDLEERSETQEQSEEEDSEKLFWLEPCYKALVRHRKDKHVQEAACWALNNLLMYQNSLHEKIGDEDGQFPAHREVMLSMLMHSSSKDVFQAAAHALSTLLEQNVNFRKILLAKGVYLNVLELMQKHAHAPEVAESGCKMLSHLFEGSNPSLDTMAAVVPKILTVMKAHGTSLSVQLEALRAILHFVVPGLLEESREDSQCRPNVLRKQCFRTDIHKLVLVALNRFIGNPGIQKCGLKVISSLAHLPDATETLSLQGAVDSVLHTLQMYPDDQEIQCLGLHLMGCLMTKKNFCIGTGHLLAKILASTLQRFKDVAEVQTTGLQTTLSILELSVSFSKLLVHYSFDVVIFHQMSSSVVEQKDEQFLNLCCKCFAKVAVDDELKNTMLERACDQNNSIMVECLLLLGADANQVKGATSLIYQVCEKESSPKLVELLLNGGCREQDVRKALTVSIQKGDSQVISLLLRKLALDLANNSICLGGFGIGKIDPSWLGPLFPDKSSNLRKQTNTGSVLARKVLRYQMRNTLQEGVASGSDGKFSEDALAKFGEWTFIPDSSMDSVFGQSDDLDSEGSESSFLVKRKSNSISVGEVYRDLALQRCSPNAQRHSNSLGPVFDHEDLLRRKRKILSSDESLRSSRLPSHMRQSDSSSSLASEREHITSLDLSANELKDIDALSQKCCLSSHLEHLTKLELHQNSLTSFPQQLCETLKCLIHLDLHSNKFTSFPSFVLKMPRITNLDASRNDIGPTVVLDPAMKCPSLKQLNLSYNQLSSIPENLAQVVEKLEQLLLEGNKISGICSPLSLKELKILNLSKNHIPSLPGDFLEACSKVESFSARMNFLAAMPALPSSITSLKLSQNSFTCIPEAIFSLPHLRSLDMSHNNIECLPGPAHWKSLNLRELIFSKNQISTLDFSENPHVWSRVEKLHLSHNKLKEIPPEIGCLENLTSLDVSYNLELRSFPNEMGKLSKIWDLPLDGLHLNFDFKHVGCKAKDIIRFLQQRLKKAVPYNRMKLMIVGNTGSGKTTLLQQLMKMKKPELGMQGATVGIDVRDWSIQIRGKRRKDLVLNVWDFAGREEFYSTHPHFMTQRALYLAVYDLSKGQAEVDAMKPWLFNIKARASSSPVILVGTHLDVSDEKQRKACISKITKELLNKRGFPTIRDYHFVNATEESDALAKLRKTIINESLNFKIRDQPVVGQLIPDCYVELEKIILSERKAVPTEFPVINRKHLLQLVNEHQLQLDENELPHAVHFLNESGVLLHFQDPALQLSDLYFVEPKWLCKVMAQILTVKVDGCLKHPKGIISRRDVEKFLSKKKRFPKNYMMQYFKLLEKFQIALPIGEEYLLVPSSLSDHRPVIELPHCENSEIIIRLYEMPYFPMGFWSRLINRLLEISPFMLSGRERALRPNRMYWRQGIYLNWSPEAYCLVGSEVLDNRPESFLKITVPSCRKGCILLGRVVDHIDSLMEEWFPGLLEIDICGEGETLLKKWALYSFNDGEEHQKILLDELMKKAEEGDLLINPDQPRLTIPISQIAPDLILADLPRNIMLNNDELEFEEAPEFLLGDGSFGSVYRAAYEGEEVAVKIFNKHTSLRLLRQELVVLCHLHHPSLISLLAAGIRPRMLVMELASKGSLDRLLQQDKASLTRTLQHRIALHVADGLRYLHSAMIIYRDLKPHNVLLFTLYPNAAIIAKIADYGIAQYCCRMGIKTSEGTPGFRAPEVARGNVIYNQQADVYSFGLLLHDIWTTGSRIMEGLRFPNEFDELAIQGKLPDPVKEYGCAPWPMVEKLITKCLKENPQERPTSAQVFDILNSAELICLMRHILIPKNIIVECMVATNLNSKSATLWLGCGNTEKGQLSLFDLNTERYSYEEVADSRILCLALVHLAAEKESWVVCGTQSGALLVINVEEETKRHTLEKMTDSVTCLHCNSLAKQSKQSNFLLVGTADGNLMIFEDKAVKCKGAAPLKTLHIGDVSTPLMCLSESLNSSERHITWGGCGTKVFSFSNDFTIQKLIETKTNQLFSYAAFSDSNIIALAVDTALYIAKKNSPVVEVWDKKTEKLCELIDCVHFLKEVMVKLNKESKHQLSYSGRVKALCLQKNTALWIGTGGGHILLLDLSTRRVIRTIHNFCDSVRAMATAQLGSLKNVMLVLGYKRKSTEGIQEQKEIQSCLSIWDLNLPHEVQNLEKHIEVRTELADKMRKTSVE
Method: Phospho-LRRK2 (S935) was quantified in drug-treated cells using a Phospho-LRRK2 (Ser935) cellular kit (Cisbio) following the manufacturer’s instructions. […] Cells were treated with compounds at the indicated concentrations for 2 h. Medium was removed by aspiration and the cells were rinsed with ice-cold PBS (1 ml). Cells were lysed with 100 µl Cisbio 1X lysis buffer at 23 °C directly in plate for 30 min. […] Clarified lysate (16 µl) was dispensed into one well of a low-volume, round-bottom 384-well plate, and 4 µl LRRK2–phospho-LRRK2 (S935) antibody master mix (Cisbio) was added to each well. The plate was incubated at 23 °C for 4 h.
The TR-FRET signal was calculated as the ratio fluorescence intensity [read B]/[read A].

[2] = molecular target: T1, LRRK2 (Homo sapiens, UniProt Q5S007); assay: In vitro LRRK2 kinase inhibition assay (SelectScreen Adapta), with or without 10 µM FKBP12; type: biochemical
T1 construct: purchased SelectScreen Services (Thermo Fisher Scientific)
T1 sequence (Q5S007 whole entry): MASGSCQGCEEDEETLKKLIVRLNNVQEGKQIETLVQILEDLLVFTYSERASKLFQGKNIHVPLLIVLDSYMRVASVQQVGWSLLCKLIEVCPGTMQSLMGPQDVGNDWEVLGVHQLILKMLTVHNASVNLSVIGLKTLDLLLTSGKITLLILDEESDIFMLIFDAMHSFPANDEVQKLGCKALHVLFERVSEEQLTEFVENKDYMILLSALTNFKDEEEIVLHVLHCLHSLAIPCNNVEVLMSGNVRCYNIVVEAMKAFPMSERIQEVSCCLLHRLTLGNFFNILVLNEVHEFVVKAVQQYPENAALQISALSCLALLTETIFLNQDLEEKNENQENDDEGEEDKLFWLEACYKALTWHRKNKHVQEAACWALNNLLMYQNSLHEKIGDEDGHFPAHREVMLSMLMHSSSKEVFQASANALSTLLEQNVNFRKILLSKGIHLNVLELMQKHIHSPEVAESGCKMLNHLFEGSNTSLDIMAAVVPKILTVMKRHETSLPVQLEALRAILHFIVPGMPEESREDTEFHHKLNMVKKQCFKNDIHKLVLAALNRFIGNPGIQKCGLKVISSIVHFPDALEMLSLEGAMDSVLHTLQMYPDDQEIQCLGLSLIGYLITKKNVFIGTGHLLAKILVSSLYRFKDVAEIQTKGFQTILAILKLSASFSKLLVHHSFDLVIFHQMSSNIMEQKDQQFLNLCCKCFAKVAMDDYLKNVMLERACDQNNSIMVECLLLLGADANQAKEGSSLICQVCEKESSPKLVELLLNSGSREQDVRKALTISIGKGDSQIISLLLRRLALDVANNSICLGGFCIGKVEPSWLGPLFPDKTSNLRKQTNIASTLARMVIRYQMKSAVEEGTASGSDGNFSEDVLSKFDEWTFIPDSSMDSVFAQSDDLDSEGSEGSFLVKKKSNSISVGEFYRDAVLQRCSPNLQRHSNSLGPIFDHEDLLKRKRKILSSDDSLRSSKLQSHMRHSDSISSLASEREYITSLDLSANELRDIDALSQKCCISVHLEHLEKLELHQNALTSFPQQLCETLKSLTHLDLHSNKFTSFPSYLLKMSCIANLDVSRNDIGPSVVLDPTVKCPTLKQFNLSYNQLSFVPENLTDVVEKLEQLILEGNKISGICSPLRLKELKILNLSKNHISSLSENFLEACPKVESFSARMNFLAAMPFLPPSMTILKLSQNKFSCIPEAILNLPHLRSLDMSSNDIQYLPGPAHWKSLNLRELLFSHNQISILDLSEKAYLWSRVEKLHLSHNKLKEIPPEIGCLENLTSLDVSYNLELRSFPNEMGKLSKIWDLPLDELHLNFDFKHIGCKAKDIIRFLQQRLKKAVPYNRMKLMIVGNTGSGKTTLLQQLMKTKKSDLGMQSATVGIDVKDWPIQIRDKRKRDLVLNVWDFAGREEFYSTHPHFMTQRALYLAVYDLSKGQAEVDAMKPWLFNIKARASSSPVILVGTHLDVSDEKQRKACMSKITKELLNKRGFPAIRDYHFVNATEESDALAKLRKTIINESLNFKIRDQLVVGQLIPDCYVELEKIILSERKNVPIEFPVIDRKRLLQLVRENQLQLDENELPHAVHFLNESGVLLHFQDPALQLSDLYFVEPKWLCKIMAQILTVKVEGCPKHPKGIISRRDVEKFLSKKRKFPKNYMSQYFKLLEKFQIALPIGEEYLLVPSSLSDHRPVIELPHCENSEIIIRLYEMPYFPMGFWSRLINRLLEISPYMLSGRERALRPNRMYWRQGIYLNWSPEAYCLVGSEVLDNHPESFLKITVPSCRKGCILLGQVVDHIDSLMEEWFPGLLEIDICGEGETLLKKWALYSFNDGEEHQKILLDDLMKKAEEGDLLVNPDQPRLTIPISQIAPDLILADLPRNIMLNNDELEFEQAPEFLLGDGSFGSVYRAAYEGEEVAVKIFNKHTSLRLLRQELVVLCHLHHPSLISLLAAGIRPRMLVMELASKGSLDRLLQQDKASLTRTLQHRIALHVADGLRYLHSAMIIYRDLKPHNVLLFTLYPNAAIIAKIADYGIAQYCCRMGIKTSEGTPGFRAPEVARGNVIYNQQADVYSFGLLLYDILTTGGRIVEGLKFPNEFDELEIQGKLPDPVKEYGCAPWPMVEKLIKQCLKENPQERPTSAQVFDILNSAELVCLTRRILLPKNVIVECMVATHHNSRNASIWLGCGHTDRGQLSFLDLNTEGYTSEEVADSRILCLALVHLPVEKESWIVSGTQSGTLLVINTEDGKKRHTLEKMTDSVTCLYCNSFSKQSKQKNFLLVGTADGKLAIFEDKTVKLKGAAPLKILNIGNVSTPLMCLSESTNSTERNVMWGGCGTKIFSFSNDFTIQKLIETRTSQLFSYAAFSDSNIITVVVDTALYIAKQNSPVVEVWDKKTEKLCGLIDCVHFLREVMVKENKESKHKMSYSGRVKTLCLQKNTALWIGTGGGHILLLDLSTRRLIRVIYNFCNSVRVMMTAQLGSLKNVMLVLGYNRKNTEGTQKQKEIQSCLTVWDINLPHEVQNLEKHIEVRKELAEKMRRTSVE
Method: In vitro kinase inhibition assays were performed by SelectScreen Services (Thermo Fisher Scientific) using either Z’-LYTE (mTOR, Src, Csk, EGFR, HER2 and HGK), Adapta (LRRK2) or LanthaScreen (DDR2) assay format (standardized protocols can be accessed on the SelectScreen website: https://www.thermofisher.com/us/en/home/products-and-services/services/custom-services/screening-and-profiling-services/selectscreen-profiling-service/selectscreen-kinase-profiling-service.html. When indicated, recombinant FKBP12 protein was added to the assay mixture to a final concentration of 10 µM.

[3] = molecular target: T2, FKBP12 (Homo sapiens, UniProt P62942); assay: Competition fluorescence polarization assay with FITC-rapamycin tracer; type: binding; conditions: recombinant FKBP12, Extended Data Fig. 2; read-out: Kd (FKBP12)
T2 construct: His-tag (HRV 3C cleavable) (cleaved yes); made in house; host or cells: Escherichia coli BL21(DE3)
T2 sequence (P62942 whole entry): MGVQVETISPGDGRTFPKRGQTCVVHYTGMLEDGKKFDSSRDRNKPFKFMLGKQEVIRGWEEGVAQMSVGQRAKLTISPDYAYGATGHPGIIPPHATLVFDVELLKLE
Method: Compound binding affinity was determined using a competition fluorescence polarization assay. […] The assay buffer was 20 mM HEPES pH 7.5 and 0.01% Triton X-100. […] Data were fitted to a three-parameter sigmoidal curve to derive IC50 values. Ki of the compounds were calculated using a tool provided by S. Wang’s laboratory (http://www.umich.edu/~shaomengwanglab/software/calc_ki/index.html). Data were plotted in GraphPad Prism 9.0.

[4] = read-out: residual kinase activity (LRRK2), 0.495 nM drug, + 10 µM FKBP12
[5] = read-out: residual kinase activity (LRRK2), 0.495 nM drug, no FKBP12
[6] = read-out: residual kinase activity (LRRK2), 1.52 nM drug, + 10 µM FKBP12
[7] = read-out: residual kinase activity (LRRK2), 1.52 nM drug, no FKBP12
[8] = read-out: residual kinase activity (LRRK2), 4.57 nM drug, + 10 µM FKBP12
[9] = read-out: residual kinase activity (LRRK2), 4.57 nM drug, no FKBP12
[10] = read-out: residual kinase activity (LRRK2), 13.7 nM drug, + 10 µM FKBP12
[11] = read-out: residual kinase activity (LRRK2), 13.7 nM drug, no FKBP12
[12] = read-out: residual kinase activity (LRRK2), 41.2 nM drug, + 10 µM FKBP12
[13] = read-out: residual kinase activity (LRRK2), 41.2 nM drug, no FKBP12
[14] = read-out: residual kinase activity (LRRK2), 123 nM drug, + 10 µM FKBP12
[15] = read-out: residual kinase activity (LRRK2), 123 nM drug, no FKBP12
[16] = read-out: residual kinase activity (LRRK2), 370 nM drug, + 10 µM FKBP12
[17] = read-out: residual kinase activity (LRRK2), 370 nM drug, no FKBP12
[18] = read-out: residual kinase activity (LRRK2), 1110 nM drug, + 10 µM FKBP12
[19] = read-out: residual kinase activity (LRRK2), 1110 nM drug, no FKBP12
[20] = read-out: residual kinase activity (LRRK2), 3330 nM drug, + 10 µM FKBP12
[21] = read-out: residual kinase activity (LRRK2), 3330 nM drug, no FKBP12
[22] = read-out: residual kinase activity (LRRK2), 10000 nM drug, + 10 µM FKBP12
[23] = read-out: residual kinase activity (LRRK2), 10000 nM drug, no FKBP12
[24] = 100 nM compound, +1 µM RapaBlock

SMILES: CCNc1nc(Nc2cc(F)c(C(=O)N3CCOCC3)cc2OC)ncc1C(F)(F)F [GNE-7915]
P-LRRK2(S935) in RAW264.7 cells ([1]; Conc 0.457247 nM, 0 nM = 100): 93.9 and 94 and 94.8
P-LRRK2(S935) in RAW264.7 cells ([1]; Conc 1.37174 nM, 0 nM = 100): 113.4 and 112.1 and 104.8
P-LRRK2(S935) in RAW264.7 cells ([1]; Conc 4.11523 nM, 0 nM = 100): 116.1 and 116.6 and 114.3
P-LRRK2(S935) in RAW264.7 cells ([1]; Conc 12.3457 nM, 0 nM = 100): 104.6 and 91.1 and 91.3
P-LRRK2(S935) in RAW264.7 cells ([1]; Conc 37.037 nM, 0 nM = 100): 75.2 and 70.5 and 70.4
P-LRRK2(S935) in RAW264.7 cells ([1]; Conc 111.111 nM, 0 nM = 100): 43.3 and 40.8 and 41
P-LRRK2(S935) in RAW264.7 cells ([1]; Conc 333.333 nM, 0 nM = 100): 26.6 and 22.6 and 23.5
P-LRRK2(S935) in RAW264.7 cells ([1]; Conc 1000 nM, 0 nM = 100): 17.7 and 14.2 and 15.7

SMILES: CCNc1nc(Nc2cc(F)c(C(=O)N3CCOCC3)cc2OC)ncc1C(F)(F)F [GNE7915]
residual kinase activity (LRRK2) ([2]; 0.495 nM drug, no FKBP12): 96
residual kinase activity (LRRK2) ([2]; 1.52 nM drug, + 10 µM FKBP12): 66
residual kinase activity (LRRK2) ([2]; 1.52 nM drug, no FKBP12): 75
residual kinase activity (LRRK2) ([2]; 4.57 nM drug, + 10 µM FKBP12): 39
residual kinase activity (LRRK2) ([2]; 4.57 nM drug, no FKBP12): 41
residual kinase activity (LRRK2) ([2]; 13.7 nM drug, + 10 µM FKBP12): 15
residual kinase activity (LRRK2) ([2]; 13.7 nM drug, no FKBP12): 16
residual kinase activity (LRRK2) ([2]; 41.2 nM drug, + 10 µM FKBP12): 9
residual kinase activity (LRRK2) ([2]; 41.2 nM drug, no FKBP12): 10
residual kinase activity (LRRK2) ([2]; 123 nM drug, + 10 µM FKBP12): 6
residual kinase activity (LRRK2) ([2]; 123 nM drug, no FKBP12): 3
residual kinase activity (LRRK2) ([2]; 370 nM drug, + 10 µM FKBP12): 5
residual kinase activity (LRRK2) ([2]; 370 nM drug, no FKBP12): 3
residual kinase activity (LRRK2) ([2]; 1110 nM drug, no FKBP12): 3
residual kinase activity (LRRK2) ([2]; 10000 nM drug, + 10 µM FKBP12): 3
remaining activity at 0.000495 µM [2, 4]: 84%
remaining activity at 0.000495 µM [2, 5]: 78%
remaining activity at 0.00152 µM [2, 6]: 68%
remaining activity at 0.00152 µM [2, 7]: 68%
remaining activity at 0.00457 µM [2, 8]: 38%
remaining activity at 0.00457 µM [2, 9]: 39%
remaining activity at 0.0137 µM [2, 10]: 17%
remaining activity at 0.0137 µM [2, 11]: 18%
remaining activity at 0.0412 µM [2, 12]: 8%
remaining activity at 0.0412 µM [2, 13]: 6%
remaining activity at 0.123 µM [2, 14]: 5%
remaining activity at 0.123 µM [2, 15]: 4%
remaining activity at […] [2, 16]: 4%
remaining activity at […] [2, 17]: 5%
remaining activity at 1.11 µM [2, 18]: 5%
remaining activity at 1.11 µM [2, 19]: 4%
remaining activity at 3.33 µM [2, 20]: 5%
remaining activity at 3.33 µM [2, 21]: 3%
remaining activity at 10 µM [2, 22]: 5%
remaining activity at 10 µM [2, 23]: 3%
pIC50 ([2]; without added FKBP12): 8.52
pIC50 [1]: 7.09
P-LRRK2(S935) in RAW264.7 cells [1, 24]: 61.9 and 64.8 and 53.2
P-LRRK2(S935) in RAW264.7 cells ([1]; 100 nM compound, No RapaBlock): 56 and 55.7 and 48.1

SMILES: CCNc1nc(Nc2cc(F)c(C(=O)N3CCN(C(=O)CCC[C@@H]4/C=C(\C)C[C@H](C)C[C@H](OC)[C@H]5O[C@@](O)(C(=O)C(=O)N6CCCC[C@H]6C(=O)O[C@H](/C(C)=C/[C@@H]6CC[C@@H](O)[C@H](OC)C6)[C@H](C)[C@@H](O)CC4=O)[C@H](C)C[C@@H]5OC)CC3)cc2OC)ncc1C(F)(F)F [FK-GNE7915]
residual kinase activity (LRRK2) ([2]; 0.495 nM drug, + 10 µM FKBP12): 87
residual kinase activity (LRRK2) ([2]; 0.495 nM drug, no FKBP12): 95
residual kinase activity (LRRK2) ([2]; 1.52 nM drug, + 10 µM FKBP12): 87
residual kinase activity (LRRK2) ([2]; 1.52 nM drug, no FKBP12): 95
residual kinase activity (LRRK2) ([2]; 4.57 nM drug, + 10 µM FKBP12): 65
residual kinase activity (LRRK2) ([2]; 4.57 nM drug, no FKBP12): 107
residual kinase activity (LRRK2) ([2]; 13.7 nM drug, no FKBP12): 90
residual kinase activity (LRRK2) ([2]; 41.2 nM drug, + 10 µM FKBP12): 41
residual kinase activity (LRRK2) ([2]; 41.2 nM drug, no FKBP12): 70
residual kinase activity (LRRK2) ([2]; 123 nM drug, + 10 µM FKBP12): 31
residual kinase activity (LRRK2) ([2]; 123 nM drug, no FKBP12): 47
residual kinase activity (LRRK2) ([2]; 370 nM drug, no FKBP12): 25
residual kinase activity (LRRK2) ([2]; 1110 nM drug, + 10 µM FKBP12): 7
residual kinase activity (LRRK2) ([2]; 1110 nM drug, no FKBP12): 9
residual kinase activity (LRRK2) ([2]; 3330 nM drug, no FKBP12): 4
residual kinase activity (LRRK2) ([2]; 10000 nM drug, + 10 µM FKBP12): 5
residual kinase activity (LRRK2) ([2]; 10000 nM drug, no FKBP12): 3
remaining activity at 0.000495 µM [2, 4]: 91%
remaining activity at 0.000495 µM [2, 5]: 101%
remaining activity at 0.00152 µM [2, 6]: 91%
remaining activity at 0.00152 µM [2, 7]: 106%
remaining activity at 0.00457 µM [2, 8]: 78%
remaining activity at 0.00457 µM [2, 9]: 94%
remaining activity at 0.0137 µM [2, 10]: 57%
remaining activity at 0.0137 µM [2, 11]: 89%
remaining activity at 0.0412 µM [2, 12]: 38%
remaining activity at 0.0412 µM [2, 13]: 66%
remaining activity at 0.123 µM [2, 14]: 24%
remaining activity at 0.123 µM [2, 15]: 54%
remaining activity at […] [2, 16]: 14%
remaining activity at […] [2, 17]: 29%
remaining activity at 1.11 µM [2, 18]: 8%
remaining activity at 1.11 µM [2, 19]: 10%
remaining activity at 3.33 µM [2, 20]: 5%
remaining activity at 3.33 µM [2, 21]: 5%
remaining activity at 10 µM [2, 22]: 6%
remaining activity at 10 µM [2, 23]: 5%
pIC50 ([2]; with 10 µM FKBP12): 7.68
pIC50 ([2]; without added FKBP12): 6.97
pIC50 [1]: 8.17
level of phospho-LRRK2 (S935), % of the basal level ([1]; 100 nM FK-GNE7915): 15%
effect on LRRK2 activity ([1]; 100 nM FK-GNE7915 + 1 µM RapaBlock): had no effect on LRRK2 activity
P-LRRK2(S935) in RAW264.7 cells [1, 24]: 99.2 and 97.5 and 90.7
P-LRRK2(S935) in RAW264.7 cells ([1]; 100 nM compound, No RapaBlock): 16.7 and 15.6 and 13.4
P-LRRK2(S935) in RAW264.7 cells ([1]; Conc 0.457247 nM, 0 nM = 100): 84.5 and 90.2 and 94.3
P-LRRK2(S935) in RAW264.7 cells ([1]; Conc 1.37174 nM, 0 nM = 100): 79.4 and 82.9 and 87.4
P-LRRK2(S935) in RAW264.7 cells ([1]; Conc 4.11523 nM, 0 nM = 100): 67.8 and 77.9 and 73.6
P-LRRK2(S935) in RAW264.7 cells ([1]; Conc 12.3457 nM, 0 nM = 100): 32.2 and 34.9 (2×)
P-LRRK2(S935) in RAW264.7 cells ([1]; Conc 37.037 nM, 0 nM = 100): 13.7 and 14.5 and 16.2
P-LRRK2(S935) in RAW264.7 cells ([1]; Conc 111.111 nM, 0 nM = 100): 11.4 (2×) and 13.1
P-LRRK2(S935) in RAW264.7 cells ([1]; Conc 333.333 nM, 0 nM = 100): 13.1 and 12.6 and 11.8
P-LRRK2(S935) in RAW264.7 cells ([1]; Conc 1000 nM, 0 nM = 100): 14 and 15.7 and 13.3

pKd [3]: 9.40
SMILES: CO[C@H]1C[C@@H](C)C/C(C)=C/[C@@H](C/C=C/C(=O)O)C(=O)C[C@H](O)[C@@H](C)[C@@H](/C(C)=C/[C@@H]2CC[C@@H](O)[C@H](OC)C2)OC(=O)[C@@H]2CCCCN2C(=O)C(=O)[C@]2(O)O[C@H]1[C@@H](OC)C[C@H]2C [Compound 05-012]

pKd [3]: 8.48
SMILES: CO[C@H]1C[C@@H](C)C/C(C)=C/[C@@H](CCCc2ccccn2)C(=O)C[C@H](O)[C@@H](C)[C@@H](/C(C)=C/[C@@H]2CC[C@@H](O)[C@H](OC)C2)OC(=O)[C@@H]2CCCCN2C(=O)C(=O)[C@]2(O)O[C@H]1[C@@H](OC)C[C@H]2C [05-084 (06-039)]
